Results: paper PMC8876231, “Analogues of Natural Chalcones as Efficient Inhibitors of AKR1C3” (Metabolites, 2022)

Molecular target: T1, AKR1C2 (Homo sapiens, UniProt P52895)
T1 construct: Myc (N); expressed in transfected cells; host or cells: HEK293
T1 sequence (P52895 1-323): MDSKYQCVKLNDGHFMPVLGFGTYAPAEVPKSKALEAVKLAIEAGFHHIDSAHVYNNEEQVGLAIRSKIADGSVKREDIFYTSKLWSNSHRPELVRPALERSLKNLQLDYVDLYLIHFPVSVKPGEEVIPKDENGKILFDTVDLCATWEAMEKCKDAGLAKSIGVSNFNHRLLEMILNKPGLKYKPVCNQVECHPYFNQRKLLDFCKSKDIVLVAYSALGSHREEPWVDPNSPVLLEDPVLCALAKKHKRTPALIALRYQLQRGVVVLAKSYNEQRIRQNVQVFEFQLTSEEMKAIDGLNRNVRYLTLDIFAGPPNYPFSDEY
Experiment: AKR1C2 inhibition assay (DHT to 3α-androstanediol)
Format: biochemical
Conditions: 10 µM compound, mean ± SD
Description: For enzymatic assays and inhibitor testing, all enzymes were cloned into bacterial or mammalian expression vectors. AKR1C3 and the human hydroxysteroid dehydrogenases HSD17B1, HSD17B2, HSD17B4 (SDR domain), HSD17B7, and HSD17B10 were cloned into a pGEX vector as described in [71, 72]. The coding sequences for AKR1C1, AKR1C2, and AKR1C4 were cloned by Gateway technology into the pcDNA3-N-MycDest vector according to the manufacturer’s instructions (Life Technologies, Carlsbad, CA, USA). The p11 plasmid coding for HSD17B14 (S205 variant) was a gift from Udo Opperman SGC Oxford, UK. For assays with HSD17B3, HEK293 cells stably expressing HSD17B3 were used. Enzymes were expressed in E. coli BL21 DE3 or E. coli BL21 DE3 Codon Plus RP (Stratagene, San Diego, CA, USA) or in HEK293 cells as described in [71, 72, 73]. Bacterial and cell pellets were stored at −20 °C and −80 °C, respectively, until use.
Inhibition assays were carried out as described in [71, 74]. […] For a detailed assay setup, see Supplementary Table S6. The incubation at 37 °C was stopped with 0.21 M ascorbic acid in methanol:acetic acid 99:1 (v:v) after the time needed to convert approximately 30% of the substrate in a control assay with 1% DMSO, without inhibitor candidate. Substrates and products were extracted from the reaction mixture by solid-phase extraction using C18 cartridges (Phenomenex, Aschaffenburg, Germany) and separated by RP–HPLC in a Beckman–Coulter HPLC Gold system, using the Luna 5 µm C18(2), 125 × 4.0 mm column (Phenomenex). […] Radioactivity was detected by online scintillation counting by using a radioactivity monitor (LB506D, Berthold Technologies, Bad Wildbad, Germany). Conversion of substrates to products was determined by integration of the peak area of the substrate and product peaks in percent. […]

Row | Compound | Inhibition of AKR1C2 at 10 µM in % | Inhibition of AKR1C2 at 10 µM in % (listed as 18 (MF11)) [%] | inhibition at 10 µM [%]
1 | COc1ccc(/C=C/C(=O)c2c(O)cc(O)cc2OC)cc1 [Compound 18] | not more than 42.3% | 21.4 ± 5.1 | 
2 | O=C(/C=C/c1ccc(Cl)cc1Cl)c1c(O)cc(O)cc1O [Compound 23, 2,4-dichloro-2′,4′,6′-trihydroxychalcone] |  |  | 94 ± 0.4
